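These data come from cells grown in 96-well plates and exposed to compound for 48 hours at five concentrations. TGI denotes the concentration required for complete inhibition of growth.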 Where a SMILES comes first, the peptide text is derived from it. The star is where a group is joined. Fmoc = O=C(OCC1c2ccccc2-c2ccccc21)*; OBn = c1ccc(CO*)cc1; tBu = CC(C)(C)*
Tests used:
Test in all cases: NCI tumour cell line growth inhibition, 48 h
[1] = tested on: HCC-2998 colon
[2] = tested on: KM12 colon
[3] = tested on: M14 melanoma
[4] = tested on: MCF7 breast
[5] = tested on: MDA-MB-435
[6] = tested on: OVCAR-4 ovarian
[7] = tested on: OVCAR-5 ovarian
[8] = tested on: RXF 393 renal
[9] = tested on: SK-MEL-5 melanoma
[10] = tested on: SNB-75 CNS

SMILES	TGI [1] [µM]	TGI [2] [µM]	TGI [3] [µM]	TGI [4] [µM]	TGI [5] [µM]	TGI [6] [µM]	TGI [7] [µM]	TGI [8] [µM]	TGI [9] [µM]	TGI [10] [µM]
CC(OC(C)(C)C)C(NC(=O)OCC1c2ccccc2-c2ccccc21)C(=O)NC(Cc1ccccc1)C(=O)OCc1ccccc1 (stereo not given) (Fmoc-Thr(tBu)-Phe-OBn; configuration not given here)	> 100	> 100	> 100	> 100	> 100	> 100	> 100	> 100	> 100	> 100
CCOC1OC(C)(C=C(C#N)C#N)CCC1C (stereo not given)	> 74.3	> 100	> 100	> 100	> 100	> 100	> 100	> 91.7	> 100	> 100
O=C(CCCCCCCCC(=O)N1C(=O)CC(=O)N(c2ccc(Cl)cc2)C1=S)N1C(=O)CC(=O)N(c2ccc(Cl)cc2)C1=S	> 100	> 100	> 100	> 100	> 100	> 100	> 100	> 100	> 100	> 100
CN(Cc1ccccc1)C(=S)S	> 100	> 100	72.6	> 100	> 100	> 100	> 100	> 100	> 100	> 100
COc1cc(/C=C2\C(=O)N(c3ccc(Cl)cc3)C(c3ccccc3)S2(=O)=O)cc(OC)c1OC (stereo not given)	> 100	99.3	> 61.6	> 63.6	23.1	> 100	> 100	> 100	> 22	> 100
Cc1c(-c2ccccc2)oc(=O)c2ccccc12	37.8	51.9	51.2	> 100	34.6	71.4	80.9	37.7	33.8	31.1
C[N+](C)([O-])C12CC3CC(CC(C3)C1)C2	> 100	> 100	> 100	> 100	> 100	> 100	> 100	> 100	> 100	> 100
COc1ccc(/C=C2\N=C3N(Cc4ccccc4)C=C(N)N3C2=O)cc1	> 100	> 100	> 100	> 100	> 100	> 100	> 100	> 100	> 100	50.7
Nc1ncnc2c1ncn2CCCNO	> 100	> 100	> 100	> 100	> 100	> 100	> 100	> 100	> 100	> 100
CCOC(=O)CCC(NC(=O)c1ccc(NCc2ccc3nc(OC)c(OC)nc3c2)c2ccccc12)C(=O)OCC (stereo not given)	> 100	> 100	> 100	> 100	> 100	> 100	> 100	> 100	> 100	> 100
N=C(N)c1ccc(N=Nc2c(O)c(C(=O)Nc3ccccc3)cc3ccccc23)cc1	> 59.7	29.9	> 100	41.7	> 100	33.1	> 62.4	> 68.4	> 49.6	52.2
CC(C)(C)C(=O)C(N)C(=O)C(C)(C)C	> 100	> 100	> 100	> 100	> 100	> 100	> 100	> 100	> 100	> 100
CC(C)NC(=O)OCCN=C1c2ccccc2C(Br)C(Br)c2ccccc21 (stereo not given)	49.8	45.8	16.2	28.2	27.2	33.6	27.3	6.66	21.1	39.8
CC1=NN(C(=O)CC(=O)Nc2cccc(C)c2)C(=O)C1N=Nc1ccc(C(=O)O)cc1 (stereo not given)	> 100	> 100	> 100	> 100	> 100	> 100	> 100	> 100	> 100	> 100

Reference: PubChem BioAssay (NCI)
